Consider 17 molecules from US10590123B2, “Pesticidally active amide heterocyclic derivatives with sulphur containing substituents” (SYNGENTA PARTICIPATIONS AG, priority 2014, dated 2020).

For data set [1], the system named is Spodoptera littoralis (Egyptian Cotton Leaf Worm). As to the kind of experiment: Example B1: Activity against Spodoptera littoralis, sprayed cotton leaf discs. The class given is in vivo. The following applies: foliar, 72 h, application rate 200 ppm, L1 larvae, 3 days after infestation, read-out: control in at least one of the three categories (mortality, anti-feedancy or growth inhibition). On the procedure:
Example B1: Activity Against Spodoptera littoralis (Egyptian Cotton Leaf Worm)
Cotton leaf discs were placed on agar in 24-well microtiter plates and sprayed with aqueous test solutions prepared from 10′000 ppm DMSO stock solutions. After drying the leaf discs were infested with five L1 larvae. The samples were assessed for mortality, anti-feedant effect, and growth inhibition in comparison to untreated samples 3 days after infestation. Control of Spodoptera littoralis by a test sample is when at least one of mortality, anti-feedant effect, and growth inhibition is higher than the untreated sample.

The subject of data set [2] is Diabrotica Balteata (Corn Root Worm). In words: Example B4: Activity against Diabrotica balteata, sprayed maize sprouts. The settings on record: 96 h, application rate 200 ppm, L2 larvae, 4 days after infestation, read-out: effect in at least one of the two categories (mortality or growth inhibition). The data set is classed as in vivo. On the procedure: Example B4: Activity Against Diabrotica Balteata (Corn Root Worm)
Maize sprouts, placed on an agar layer in 24-well microtiter plates were treated with aqueous test solutions prepared from 10′000 ppm DMSO stock solutions by spraying. After drying, the plates were infested with L2 larvae (6 to 10 per well). The samples were assessed for mortality and growth inhibition in comparison to untreated samples 4 days after infestation.

Data set [3] deals with Bemisia tabaci (Cotton White Fly). In words: Example B6: Activity against Bemisia tabaci, sprayed cotton leaf discs. The class given is in vivo. The settings on record: foliar, 144 h, application rate 200 ppm, adult white flies, 6 days after incubation. On the procedure: Example B6: Activity Against Bemisia tabaci (Cotton White Fly)
Cotton leaf discs were placed on agar in 24-well microtiter plates and sprayed with aqueous test solutions prepared from 10′000 ppm DMSO stock solutions. After drying the leaf discs were infested with adult white flies. The samples were checked for mortality 6 days after incubation.

In data set [4] the test system is Plutella xylostella (Diamond Back Moth). As to the kind of experiment: Example B3: Activity against Plutella xylostella, artificial diet. The class given is in vivo. The settings on record: 120 h, application rate 200 ppm, L2 larvae, 5 days after infestation, read-out: effect in at least one of the two categories (mortality or growth inhibition). Here is the method: Example B3: Activity Against Plutella xylostella (Diamond Back Moth)
24-well microtiter plates with artificial diet were treated with aqueous test solutions prepared from 10′000 ppm DMSO stock solutions by pipetting. After drying, the plates were infested with L2 larvae (10 to 15 per well). The samples were assessed for mortality and growth inhibition in comparison to untreated samples 5 days after infestation.

Data set [5] relates to Spodoptera littoralis (Egyptian Cotton Leaf Worm). In words: Example B2: Activity against Spodoptera littoralis, systemic via lettuce roots in agar. The data set is classed as in vivo. The settings on record: 144 h, application rate 12.5 ppm, 6 days after infestation, read-out: control in at least one of the three categories (mortality, anti-feedancy or growth inhibition). The text has this: Example B2: Activity Against Spodoptera littoralis (Egyptian Cotton Leaf Worm)
Test compounds were applied by pipette from 10′000 ppm DMSO stock solutions into 24-well plates and mixed with agar. Lettuce seeds were placed on the agar and the multi well plate was closed by another plate which contains also agar. After 7 days the roots have absorbed the compound and the lettuce has grown into the lid plate. The lettuce leafs were now cut off into the lid plate. Spodoptera eggs were pipetted through a plastic stencil on a humid gel blotting paper and the plate closed with it.
The samples were assessed for mortality, anti-feedant effect and growth inhibition in comparison to untreated samples 6 days after infestation.

The test system of data set [6] is Frankliniella occidentalis (Western Flower Thrips). In words: Example B5: Activity against Frankliniella occidentalis, sprayed sunflower leaf discs. The data set is classed as in vivo. The following applies: foliar, 168 h, application rate 200 ppm, population of mixed ages, 7 days after infestation. Here is the method:
Example B5: Activity Against Frankliniella occidentalis (Western Flower Thrips)
Sunflower leaf discs were placed on agar in 24-well microtiter plates and sprayed with aqueous test solutions prepared from 10′000 ppm DMSO stock solutions. After drying the leaf discs were infested with a Frankliniella population of mixed ages. The samples were assessed for mortality 7 days after infestation.

Data set [7] relates to Myzus persicae (Green Peach Aphid). In words: Example B8: Activity against Myzus persicae, sprayed sunflower leaf discs. The following applies: foliar, 144 h, application rate 200 ppm, aphid population of mixed ages, 6 days after infestation. The class given is in vivo. Here is the method:
Example B8: Activity Against Myzus persicae (Green Peach Aphid)
Sunflower leaf discs were placed on agar in a 24-well microtiter plate and sprayed with aqueous test solutions prepared from 10′000 ppm DMSO stock solutions. After drying, the leaf discs were infested with an aphid population of mixed ages. The samples were assessed for mortality 6 days after infestation.

Data set [8] relates to Euschistus heros (Neotropical Brown Stink Bug). In words: Example B7: Activity against Euschistus heros, sprayed soybean leaf. The class given is in vivo. The settings on record: 120 h, application rate 200 ppm, N-2 nymphs, 5 days after infestation. On the procedure: Example B7: Activity Against Euschistus heros (Neotropical Brown Stink Bug)
Soybean leaf on agar in 24-well microtiter plates were sprayed with aqueous test solutions prepared from 10′000 ppm DMSO stock solutions. After drying the leaf were infested with N-2 nymphs. The samples were assessed for mortality 5 days after infestation.

Each structure is given as a SMILES string. Some results are limits rather than exact numbers.

One may read the mortality as the share of the test organisms that died. Lower therefore signals more survivors. Regarding `CCS(=O)(=O)c1cc(-c2ccc(Cl)cc2)cnc1C(=O)N(C)c1nnc(C(F)(F)F)s1` [Compound P2, 5-(4-chlorophenyl)-3-ethylsulfonyl-N-methyl-N-[5-(trifluoromethyl)-1,3,4-thiadiazol-2-yl]pyridine-2-carboxamide], the percent control (mortality, anti-feedant effect or growth inhibition) at 200 ppm in data set [1] is not below 80%. Moreover, the percent effect (mortality or growth inhibition) at 200 ppm in [2] and in data set [4] was not below 80% each time. The mortality at 200 ppm in data set [3] and in data set [6] was not below 80% in each case. Further, the percent control (mortality, anti-feedant effect or growth inhibition) at 12.5 ppm in data set [5] was not below 80%.

As for `CCS(=O)(=O)c1cc(-c2ncc(Cl)cc2Cl)cnc1C(=O)N(C)c1nnc(C(F)(F)F)s1` [Compound P47], the percent control (mortality, anti-feedant effect or growth inhibition) at 200 ppm in data set [1] was not below 80%. For the same molecule, the percent effect (mortality or growth inhibition) at 200 ppm in data set [2] and in [4] was not below 80% throughout. Besides, the mortality at 200 ppm in data set [3], in data set [7] and in [8] was not below 80% each time. Also, the percent control (mortality, anti-feedant effect or growth inhibition) at 12.5 ppm in data set [5] was not below 80%.

For `CCS(=O)(=O)c1cc(-c2nccc(C(F)(F)F)n2)cnc1C(=O)N(C)c1nnc(C(F)(F)F)s1` [Compound P41], in data set [1], the percent control (mortality, anti-feedant effect or growth inhibition) at 200 ppm is not below 80%. For the same molecule, the percent effect (mortality or growth inhibition) at 200 ppm in [2] and in data set [4] was not below 80% in each case. Further, the mortality at 200 ppm in data set [3], in data set [7] and in data set [8] was not below 80% in each case. In addition, the percent control (mortality, anti-feedant effect or growth inhibition) at 12.5 ppm in data set [5] is not below 80%.

In the case of `CCS(=O)(=O)c1cc(-c2cc(F)cc(F)c2)cnc1C(=O)N(C)c1nnc(C(F)(F)F)s1` [Compound P35], the percent control (mortality, anti-feedant effect or growth inhibition) at 200 ppm in [1] is not below 80%. The percent effect (mortality or growth inhibition) at 200 ppm in data set [2] and in data set [4] was not below 80% throughout. Moreover, the mortality at 200 ppm in [3], in [7] and in data set [8] was not below 80% in each case. The percent control (mortality, anti-feedant effect or growth inhibition) at 12.5 ppm in data set [5] was not below 80%.

For orientation: melting point means the temperature, or range, at which the solid turns liquid. The molecule `CCS(=O)(=O)c1cc(-c2cccc(Cl)c2)cnc1C(=O)N(C)c1nnc(C(F)(F)F)s1` came in with a melting point of 213 to 215 °C.

`CCS(=O)(=O)c1cc(-c2ccc(C(F)(F)F)cc2)ccc1C(=O)N(C)c1nnc(C(F)(F)F)s1` displayed a melting point of 174 to 176 °C.

As for `CCS(=O)(=O)c1cc(-c2ccc(F)cc2F)cnc1C(=O)N(C)c1nnc(C(F)(F)F)s1` [Compound P25], the percent control (mortality, anti-feedant effect or growth inhibition) at 200 ppm in [1] was not below 80%. Moreover, the percent effect (mortality or growth inhibition) at 200 ppm in [2] and in data set [4] was not below 80% in each case. Besides, the mortality at 200 ppm in data set [3], in [7] and in [8] was not below 80% throughout. In addition, the percent control (mortality, anti-feedant effect or growth inhibition) at 12.5 ppm in data set [5] was not below 80%.

With `CCS(=O)(=O)c1cc(-c2cccc(SC)c2)cnc1C(=O)N(C)c1nnc(C(F)(F)F)s1` [Compound P30], the percent control (mortality, anti-feedant effect or growth inhibition) at 200 ppm in data set [1] is not below 80%. Moreover, the percent effect (mortality or growth inhibition) at 200 ppm in [2] and in data set [4] was not below 80% throughout. The mortality at 200 ppm in [3], in [7] and in [8] was not below 80% each time.

Regarding `CCS(=O)(=O)c1cc(-c2ccc(C#N)cc2)cnc1C(=O)N(C)c1nnc(C(F)(F)F)s1` [Compound P28], the percent control (mortality, anti-feedant effect or growth inhibition) at 200 ppm in [1] was not below 80%. Further, the percent effect (mortality or growth inhibition) at 200 ppm in data set [2] and in data set [4] was not below 80% throughout. The mortality at 200 ppm in [3], in data set [7] and in data set [8] was not below 80% throughout. In addition, in [5], the percent control (mortality, anti-feedant effect or growth inhibition) at 12.5 ppm is not below 80%.

In the case of `CCS(=O)(=O)c1cc(-c2ccnc(F)c2)cnc1C(=O)N(C)c1nnc(C(F)(F)F)s1` [Compound P56], the percent control (mortality, anti-feedant effect or growth inhibition) at 200 ppm in data set [1] is not below 80%. Moreover, the percent effect (mortality or growth inhibition) at 200 ppm in [2] and in [4] was not below 80% each time. Moreover, the mortality at 200 ppm in [3], in data set [7] and in [8] was not below 80% throughout. Also, in data set [5], the percent control (mortality, anti-feedant effect or growth inhibition) at 12.5 ppm was not below 80%.

`CCS(=O)(=O)c1cc(-c2ccc(Cl)cn2)cnc1C(=O)N(C)c1nnc(C(F)(F)F)s1` [Compound P52]: the percent control (mortality, anti-feedant effect or growth inhibition) at 200 ppm in data set [1] is not below 80%. For the same molecule, the percent effect (mortality or growth inhibition) at 200 ppm in data set [2] and in data set [4] was not below 80% each time. Moreover, the mortality at 200 ppm in data set [3], in [6], in [7] and in data set [8] was not below 80% each time. Besides, the percent control (mortality, anti-feedant effect or growth inhibition) at 12.5 ppm in [5] is not below 80%.

`CCSc1cc(-c2ccc(Cl)cc2)cnc1C(=O)Nc1nnc(C(F)(F)C(F)(F)F)s1` came in with a melting point of 184 to 187 °C.

For the molecule `CCS(=O)(=O)c1cc(-c2ncc(F)cc2F)cnc1C(=O)N(C)c1nnc(C(F)(F)F)s1` [Compound P44], in data set [1], the percent control (mortality, anti-feedant effect or growth inhibition) at 200 ppm was not below 80%. For the same molecule, the percent effect (mortality or growth inhibition) at 200 ppm in data set [2] and in [4] was not below 80% throughout. For the same molecule, the mortality at 200 ppm in data set [3], in data set [7] and in [8] was not below 80% in each case. In addition, in data set [5], the percent control (mortality, anti-feedant effect or growth inhibition) at 12.5 ppm is not below 80%.

As for `CCS(=O)(=O)c1cc(-c2ccc(F)cc2)cnc1C(=O)N(C)c1nnc(C(F)(F)F)s1` [Compound P32], in data set [1], the percent control (mortality, anti-feedant effect or growth inhibition) at 200 ppm was not below 80%. Besides, the percent effect (mortality or growth inhibition) at 200 ppm in [2] and in data set [4] was not below 80% in each case. Moreover, the mortality at 200 ppm in data set [3], in data set [6], in [7] and in data set [8] was not below 80% in each case. Also, the percent control (mortality, anti-feedant effect or growth inhibition) at 12.5 ppm in [5] was not below 80%.

In the case of `CCSc1cc(-c2ccc(C(F)(F)F)cc2)cnc1C(=O)Nc1nnc(C(F)(F)C(F)(F)F)s1`, the melting point lay in the range of 254 to 256 °C.

`CCS(=O)(=O)c1cc(-c2cc(F)cc(F)c2)cnc1C(=O)Nc1nnc(C(F)(F)C(F)(F)F)s1` showed a melting point of 242 to 244 °C.

Consider `CCS(=O)(=O)c1cc(-c2cc(F)cc(F)c2)cnc1C(=O)N(C)c1nnc(C(F)(F)C(F)(F)F)s1`, for which the melting point is 159 to 161 °C.
